In US12606795B2 (Thankcome Biological Science and Technology (SuZhou) Co., …, priority 2023, dated 2026):
Marks after values point to notes of the source that are not given here.

What was measured:
[1] = Tolerance to artificial intestinal juice; format: physicochemical; details: artificial intestinal juice pH 8.0, 37° C., at 240 min
Procedure: Gastric juice ([…], 2 g/L NaCl, and 3.2 g/L pepsin, pH 2.0) and intestinal juice (6.8 g/L KH2 PO4, 10 g/L trypsin, and 0.1M NaOH, pH 8.0) were prepared, and then the gastric juice and the intestinal juice were filtered and sterilized using 0.22 μm sterile filter. […] The bacterial cells were washed twice with sterile saline and resuspended in 5 mL saline. A bacterial solution was mixed well with the sterile artificial gastric or intestinal juice in 1:1 (v/v). The mixture was shaken well, and then was placed in a constant-temperature incubator and culture was performed at 37° C.

SPF Kunming mice = test: Acute toxicity in mice; format: in vivo; details: for Granulocyte number GR# / Granulocyte percentage GR % / Hematocrit HCT / Hemoglobin HGB / Lymphocyte number Lym# / Lymphocyte percentage Lym % / Mean corpuscular hemoglobin MCH / Mean corpuscular volume MCV / Mean corpuscular-hemoglobin concentration MCHC / Mean platelet volume MPV / Middle cell number Mid# / Middle cell percentage Mid % / Platelet distribution PDW / Platelet-large cell count PLCC / Platelet-large cell ratio PLCR / Plateletcrit PCT / Platelets PLT / Red blood cell distribution width coefficient of variation RDW_CV / Red blood cell distribution width standard deviation RDW_SD / Red blood cells RBC / While blood cells WBC: acute toxicity
Procedure: The groups were recorded as a sodium chloride solution group, a low dosage group, a medium dosage group and a high dosage group, respectively, and the general conditions and the body weight were observed per day within 7 to 10 d. At the end of the experimental period, blood samples were collected for hematological and serum biochemical analysis (refer to Embodiment 4). A histopathological examination of major organs and tissue was performed on all animals in each group (refer to Embodiment 4).

[2] = system: APP/PS1 double transgenic mice; test: Alzheimer's disease in APP/PS1 double transgenic mice; format: in vivo; details: 1*10^9 CFU/mouse/d 30 d
[3] = high dosage 5×10^11 CFU/d intragastric for 1 d
[4] = low dosage 1×10^9 CFU/d intragastric for 1 d
[5] = medium dosage 5×10^10 CFU/d intragastric for 1 d

Substance: Akkermansia muciniphila [AKK PROBIO]
- survival rate in intestinal juice [1]: ≥ 80%
- pathological sections of livers and kidneys (SPF Kunming mice; acute): no significant pathological injury
- death (SPF Kunming mice; acute intragastric administration, high, medium and low dosage (5×10^11, 5×10^10, 1×10^9 CFU/d)): no death occurs
- Granulocyte number GR# (SPF Kunming mice; [3]): 0 ± 0 10^9/L
- Granulocyte percentage GR % (SPF Kunming mice; [3]): 0 ± 0%
- Hematocrit HCT (SPF Kunming mice; [3]): 7.35 ± 2.76%
- Hemoglobin HGB (SPF Kunming mice; [3]): 110.00 g/L
- Lymphocyte number Lym# (SPF Kunming mice; [3]): 0.54 ± 0.37 10^9/L
- Lymphocyte percentage Lym % (SPF Kunming mice; [3]): 100 ± 0%
- Mean corpuscular hemoglobin MCH (SPF Kunming mice; [3]): 81.55 pg
- Mean corpuscular volume MCV (SPF Kunming mice; [3]): 52.60 fL
- Mean corpuscular-hemoglobin concentration MCHC (SPF Kunming mice; [3]): 1579.00 g/L
- Mean platelet volume MPV (SPF Kunming mice; [3]): 9.20 ± 0.71 fL
- Middle cell number Mid# (SPF Kunming mice; [3]): 0 ± 0 10^9/L
- Middle cell percentage Mid % (SPF Kunming mice; [3]): 0 ± 0%
- Platelet distribution PDW (SPF Kunming mice; [3]): 21.00%
- Platelet-large cell count PLCC (SPF Kunming mice; [3]): 218.50 ± 10^9/L
- Platelet-large cell ratio PLCR (SPF Kunming mice; [3]): 19.70%
- Plateletcrit PCT (SPF Kunming mice; [3]): 1.04 ± 0.40%
- Platelets PLT (SPF Kunming mice; [3]): 1112.50 ± 10^9/L
- Red blood cell distribution width coefficient of variation RDW_CV (SPF Kunming mice; [3]): 13.75%
- Red blood cell distribution width standard deviation RDW_SD (SPF Kunming mice; [3]): 92.55 fL
- Red blood cells RBC (SPF Kunming mice; [3]): 1.38 ± 0.35 10^12/L
- While blood cells WBC (SPF Kunming mice; [3]): 0.54 ± 0.37 10^9/L
- Granulocyte number GR# (SPF Kunming mice; [4]): 0.05 ± 10^9/L
- Granulocyte percentage GR % (SPF Kunming mice; [4]): 3.8%
- Hematocrit HCT (SPF Kunming mice; [4]): 11.70%
- Hemoglobin HGB (SPF Kunming mice; [4]): 87.50 g/L
- Lymphocyte number Lym# (SPF Kunming mice; [4]): 0.82 ± 10^9/L
- Lymphocyte percentage Lym % (SPF Kunming mice; [4]): 95.55%
- Mean corpuscular hemoglobin MCH (SPF Kunming mice; [4]): 45.35 pg
- Mean corpuscular volume MCV (SPF Kunming mice; [4]): 55.90 fL
- Mean corpuscular-hemoglobin concentration MCHC (SPF Kunming mice; [4]): 802.00 g/L
- Mean platelet volume MPV (SPF Kunming mice; [4]): 9.55 fL
- Middle cell number Mid# (SPF Kunming mice; [4]): 0.01 ± 10^9/L
- Middle cell percentage Mid % (SPF Kunming mice; [4]): 0.65%
- Platelet distribution PDW (SPF Kunming mice; [4]): 19.10%
- Platelet-large cell count PLCC (SPF Kunming mice; [4]): 273.50 ± 10^9/L
- Platelet-large cell ratio PLCR (SPF Kunming mice; [4]): 27.65%
- Plateletcrit PCT (SPF Kunming mice; [4]): 0.89%
- Platelets PLT (SPF Kunming mice; [4]): 921.00 ± 10^9/L
- Red blood cell distribution width coefficient of variation RDW_CV (SPF Kunming mice; [4]): 14.85%
- Red blood cell distribution width standard deviation RDW_SD (SPF Kunming mice; [4]): 76.40 fL
- Red blood cells RBC (SPF Kunming mice; [4]): 2.12 ± 10^12/L
- While blood cells WBC (SPF Kunming mice; [4]): 0.88 ± 10^9/L
- Granulocyte number GR# (SPF Kunming mice; [5]): 0.06 ± 10^9/L
- Granulocyte percentage GR % (SPF Kunming mice; [5]): 4.20 ± 5.94%
- Hematocrit HCT (SPF Kunming mice; [5]): 11.70%
- Hemoglobin HGB (SPF Kunming mice; [5]): 96.00 g/L
- Lymphocyte number Lym# (SPF Kunming mice; [5]): 0.99 ± 10^9/L
- Lymphocyte percentage Lym % (SPF Kunming mice; [5]): 95.20%
- Mean corpuscular hemoglobin MCH (SPF Kunming mice; [5]): 49.20 pg
- Mean corpuscular volume MCV (SPF Kunming mice; [5]): 53.05 fL
- Mean corpuscular-hemoglobin concentration MCHC (SPF Kunming mice; [5]): 892.00 g/L
- Mean platelet volume MPV (SPF Kunming mice; [5]): 9.15 ± 0.78 fL
- Middle cell number Mid# (SPF Kunming mice; [5]): 0.01 ± 10^9/L
- Middle cell percentage Mid % (SPF Kunming mice; [5]): 0.60%
- Platelet distribution PDW (SPF Kunming mice; [5]): 20.15%
- Platelet-large cell count PLCC (SPF Kunming mice; [5]): 158.50 ± 10^9/L
- Platelet-large cell ratio PLCR (SPF Kunming mice; [5]): 18.00%
- Plateletcrit PCT (SPF Kunming mice; [5]): 0.84 ± 0.54%
- Platelets PLT (SPF Kunming mice; [5]): 891.50 ± 10^9/L
- Red blood cell distribution width coefficient of variation RDW_CV (SPF Kunming mice; [5]): 13.05%
- Red blood cell distribution width standard deviation RDW_SD (SPF Kunming mice; [5]): 73.40 fL
- Red blood cells RBC (SPF Kunming mice; [5]): 2.28 ± 10^12/L
- While blood cells WBC (SPF Kunming mice; [5]): 1.06 ± 10^9/L
- weight of major organs (organ indices) (SPF Kunming mice; acute, heart, liver, spleen, kidneys, thymus, brain, testes, lungs, stomach, intestine, vs control group): substantially no significant difference
- activity of glutamic oxalacetic transaminase (GOT) in both serum and liver (SPF Kunming mice; acute, vs control group): no significant difference
- activity of glutamic pyruvate transaminase (GPT) in both serum and liver (SPF Kunming mice; acute, vs control group): no significant difference
- concentration of blood urea nitrogen (BUN) in serum (SPF Kunming mice; acute, vs control group): no significant difference
- content of creatinine (GRE) in serum (SPF Kunming mice; acute, vs control group): no significant difference
- level of glucose (GLU) in both serum and liver (SPF Kunming mice; acute, vs control group): no significant difference
- level of the bile acid in both serum and liver (SPF Kunming mice; acute, vs control group): no significant difference
- level of the cholesterol in both serum and liver (SPF Kunming mice; acute, vs control group): no significant difference
- level of total protein (TP) in both serum and liver (SPF Kunming mice; acute, vs control group): no significant difference
- level of the triglyceride in serum (SPF Kunming mice; acute, vs control mice): no significant difference
- changes of blood glucose per day (SPF Kunming mice; acute, vs control saline group): no significant difference
- changes of body weight per day (SPF Kunming mice; acute, vs control saline group): no significant difference
- changes of food intake per day (SPF Kunming mice; acute, vs control saline group): no significant difference
- level of triglyceride in the liver (SPF Kunming mice; acute, vs control saline group): significantly lower
- various blood indicators (SPF Kunming mice; acute, vs control saline group): no significant difference
- Serum IL-4 ([2]; APP group 35.00, WT 106.52): 70.42 ± 3.40^c
- Serum CCL2 ([2]; APP group 80.13, WT 59.07): 67.74 ± 1.51^b
- Serum CXCL1 ([2]; APP group 168.91, WT 14.87): 56.40 ± 2.88^b
- Serum IL-10 ([2]; APP group 565.36, WT 2779.61): 2133.04 ± 18947^b
